The text below walks through data of patent publication US20230416329A1, “A PEPTIDE WITH DISULFIDE BONDS AND INHIBITORY ACTIVITY AGAINST SERINE PROTEASES, DERIVED HYBRID PEPTIDES THEREOF, AND USES THEREOF” (INSTITUTE OF MATERIA MEDICA , CHINESE ACADEMY OF MEDICAL …, priority 2020, published 2023).

This assay concerns the target α-chymotrypsin (Bos taurus, UniProt P00766). The assay can be described thus: Chymotrypsin inhibitory activity of peptides (AAPFpNA hydrolysis; IC50, Ki, residual activity). The class given is biochemical. Conditions: for Ki: Ki=IC50/(1+S/Km), Km 0.38 mM; for IC50: chymotrypsin 30 nM, AAPFpNA 0.5 mM. As for the experimental part: The inhibition constants of various synthetic active peptide inhibitors (molecular scaffolds) against seine proteases were measured. The substrates N-succinyl-Ala-Ala-Pro-Phe-p-nitroaniline (AAPFpNA), Nα—Benzoyl-L-arginine-4-nitroaniline hydrochloride (BApNA) and N-succinyl-[…] (AAApNA) are used in competitive binding reaction to determine the inhibitory activities against α-chymotrypsin, bovine trypsin, and porcine pancreatic elastase, respectively. Experiments for α-chymotrypsin and bovine trypsin inhibition were measured in 20 mM CaCl2, 50 mM Tris-HCl buffer (pH 7.8), and that for porcine elastase inhibition was measured in 50 mM Tris-HCl buffer (pH 8.0). The concentration of the peptide was measured using optical density (OD) at 280 nm. The Michaelis constant (Km) of the enzyme hydrolysis substrate is calculated from the initial rate of substrate hydrolysis at 405 nm. The absorbance value of the substrate was measured at 405 nm after complete hydrolysis. All data were processed using nonlinear regression.
• (1) Added a total 190 μL of reaction buffer (20 mM CaCl2, 50 mM Tris-HCl (pH 7.8)) into the 96 well plate, followed by preheating at 37° C. for 15 min. Then added 2 μL of different concentrations of substrates (p-Nitroanilide, pNA, 0.5% in DMSO), and mixed by centrifugation at 500 rpm for 1 min. Finally, the plate was incubated at 37° C. for 20 min, and the absorbance value at 405 nm was measured. In the 200 μL of reaction system, the final concentrations of pNA were 0, 0.025, 0.05, 0.075, 0.1, 0.125, 0.15, 0.25, and 0.3 mM, respectively. Make three repetitions for each concentration and plot the OD405 m value with pNA concentration to obtain the standard curve. • (2) Added a total 190 μL of reaction buffer (20 mM CaCl2, 50 mM Tris-HCl (pH 7.8)) and 8 μL of 0.75 μM chymotrypsin into the 96 well plate, followed by preheating at 37° C. for 5 min. Then added 2 μL of different concentrations of substrates (AAPFpNA, dissolved in DMSO), and mixed by centrifugation at 500 rpm for 1 min. Finally, the plate was incubated at 37° C. for 20 min, and the absorbance value at 405 nm was measured. In the 200 μL of reaction system, the final concentrations of AAPFpNA were 0, 0.125, 0.25, 0.285, 0.33, 0.4, and 0.5 mM, respectively. Make three repetitions for each concentration and plot the OD405 nm value with time to obtain the corresponding curve. Divide the slope of the curve by the slope of the standard curve and the enzyme concentration to obtain the initial velocity V0 (mM/(min*mM protein). Plot the initial velocity V0 with the concentration of substrate AAPFpNA using Prism software, and the Michaelis constant Km value of chymotrypsin hydrolyzing AAPFpNA was obtained.
• (1) Added a total 190 μL of reaction buffer (20 mM CaCl2, 50 mM Tris-HCl (pH 7.8)), different concentrations of anti-chymorypsin peptides (CHs) into the pre-cold 96 well plate, followed by preheating at 37° C. for 5 min and centrifugated at 500 rpm for 1 min and allowed to stand for 4 minutes. Then added 8 μL of 750 nM chymotrypsin and incubated at 37° C. for 10 min, and centrifugated at 500 rpm for 1 min and allowed to stand for 9 minutes. Finally, added 2 μL of 50 mM AAPFpNA, and mixed by centrifugation at 500 rpm for 1 min. The plate was incubated at 37° C. for 90 min, and the absorbance value at 405 nm was measured. Three repetitions were made, and only reaction buffer and substrate were added in the blank control as the minimum absorption value (Min OD405 nm); Only reaction buffer, enzyme and substrate were added in the negative control as the maximum absorption value (Max OD405). • (2) In the 200 μL of reaction system, the final concentrations of chymotrypsin and AAPFpNA were 30 nM and 0.5 mM, respectively. • (3) Data statistics
Residual activity of enzyme (%)=(1−(Max OD405 nm−Sample OD405 nm)/(Max OD405 nm−Min OD405 nm))*100 […]

Bridge positions count the residues as written; N and C are the ends. Peptide text beside a SMILES is read from it.

Consider `CC[C@H](C)[C@@H]1NC(=O)[C@H](CO)NC(=O)[C@H](Cc2ccccc2)NC(=O)[C@H]([C@@H](C)O)NC(=O)CNC(=O)[C@H](Cc2ccccc2)NC(=O)CNC(=O)[C@@H](N)CSSC[C@@H](C(=O)N[C@@H](Cc2ccc(O)cc2)C(=O)NCC(=O)O)NC(=O)[C@H](CCC(N)=O)NC(=O)[C@@H]2CCCN2C(=O)[C@@H]2CCCN2C1=O` [CH7] (H-CGFGTFSIPPQCYG-OH; disulfide 1-12; N-terminus and C-terminus assumed), for which the “inhibitory activity against chymotrypsin (in words)” value (from here on “inhibitory activity”) is recorded as “certain inhibitory activity against chymotrypsin”; the affinity, expressed as Ki, was 9.65 µM; the 50% inhibitory concentration (IC50) (usually the point on the concentration scale where inhibition reaches its midpoint) stood at 22.3 µM. For the same molecule, the “Residual activity of chymotrypsin” value (peptide 0.01 μM) was determined as 100.9 ± 1.3%. Besides, under “peptide 0.1 μM”, the “Residual activity of chymotrypsin” value was 98.8 ± 3.9%. Moreover, the “Residual activity of chymotrypsin” value (peptide 1 μM) came to 101.7 ± 6.3%. Where the note is “peptide 10 μM”, the “Residual activity of chymotrypsin” value came to 77.7 ± 2.0%. Under “peptide 25 μM”, the “Residual activity of chymotrypsin” value was found to be 46.0 ± 1.0%. For the same molecule, where the note is “peptide 50 μM”, the “Residual activity of chymotrypsin” value came to 25.8 ± 0.9%. Moreover, the “Residual activity of chymotrypsin” value (peptide 100 μM) was found to be 14.1 ± 0.9%. For the same molecule, the “Residual activity of chymotrypsin” value (peptide 300 μM) was determined as 4.1 ± 0.1%. The “Residual activity of chymotrypsin” value (peptide 1000 μM) is reported as 1.2 ± 0.1%.
`CC[C@H](C)[C@@H]1NC(=O)[C@H](CO)NC(=O)[C@H](Cc2ccc(O)cc2)NC(=O)[C@H]([C@@H](C)O)NC(=O)[C@H](C)NC(=O)[C@H](CO)NC(=O)[C@@H](N)CSSC[C@@H](C(=O)N[C@@H](Cc2ccc(O)cc2)C(=O)O)NC(=O)[C@H](CCC(N)=O)NC(=O)[C@@H]2CCCN2C(=O)[C@@H]2CCCN2C1=O` [CH8] (H-CSATYSIPPQCY-OH; disulfide 1-11; N-terminus and C-terminus assumed): the IC50 was greater than 50 µM.
For the molecule `CC[C@H](C)[C@@H]1NC(=O)[C@H](CO)NC(=O)[C@H](Cc2ccc(O)cc2)NC(=O)[C@H]([C@@H](C)O)NC(=O)[C@H](C)NC(=O)[C@H](CO)NC(=O)CNC(=O)[C@@H](N)CSSC[C@@H](C(=O)N[C@@H](Cc2ccc(O)cc2)C(=O)O)NC(=O)[C@H](CCC(N)=O)NC(=O)[C@@H]2CCCN2C(=O)[C@@H]2CCCN2C1=O` [CH9] (H-CGSATYSIPPQCY-OH; disulfide 1-12; N-terminus and C-terminus assumed), the “inhibitory activity” value was “certain inhibitory activity against chymotrypsin”; the Ki – broadly, a measure of affinity in units of concentration, obtained from inhibition or displacement – worked out at 12.3 µM; the IC50 turned out to be 28.4 µM.
On to `CC[C@H](C)[C@@H]1NC(=O)[C@H](CO)NC(=O)[C@H](Cc2ccccc2)NC(=O)[C@H]([C@@H](C)O)NC(=O)[C@H](C)NC(=O)[C@H](Cc2ccccc2)NC(=O)CNC(=O)[C@@H](N)CSSC[C@@H](C(=O)N[C@@H](Cc2ccc(O)cc2)C(=O)NCC(=O)O)NC(=O)[C@H](CCC(N)=O)NC(=O)[C@@H]2CCCN2C(=O)[C@@H]2CCCN2C1=O` [CH12] (H-CGFATFSIPPQCYG-OH; disulfide 1-12), for which the IC50 is greater than 50 µM.
As for `CC[C@H](C)[C@@H]1NC(=O)[C@H](CO)NC(=O)[C@H](Cc2ccccc2)NC(=O)[C@H]([C@@H](C)O)NC(=O)[C@H](C)NC(=O)[C@H](CO)NC(=O)CNC(=O)[C@@H](N)CSSC[C@@H](C(=O)N[C@@H](Cc2ccc(O)cc2)C(=O)NCC(=O)O)NC(=O)[C@H](CCC(N)=O)NC(=O)[C@@H]2CCCN2C(=O)[C@@H]2CCCN2C1=O` [CH13] (H-CGSATFSIPPQCYG-OH; disulfide 1-12; N-terminus and C-terminus assumed), the “inhibitory activity” value is recorded as “good inhibitory activity”; the affinity, expressed as Ki, was 2.43 µM; the half-maximal inhibitory concentration (IC50) was determined as 5.62 µM.
For `CC[C@H](C)[C@@H]1NC(=O)[C@H](CO)NC(=O)[C@H](Cc2ccc(O)cc2)NC(=O)[C@H]([C@@H](C)O)NC(=O)[C@H](C)NC(=O)[C@H](Cc2ccccc2)NC(=O)CNC(=O)[C@@H](N)CSSC[C@@H](C(=O)N[C@@H](Cc2ccc(O)cc2)C(=O)NCC(=O)O)NC(=O)[C@H](CCC(N)=O)NC(=O)[C@@H]2CCCN2C(=O)[C@@H]2CCCN2C1=O` [CH14] (H-CGFATYSIPPQCYG-OH; disulfide 1-12), the concentration for half-maximal inhibition (IC50) is greater than 50 µM.
With `CC[C@H](C)[C@@H]1NC(=O)[C@H](CO)NC(=O)[C@H](Cc2ccc(O)cc2)NC(=O)[C@H]([C@@H](C)O)NC(=O)[C@H](C)NC(=O)[C@H](CO)NC(=O)CNC(=O)[C@@H](N)CSSC[C@@H](C(=O)N[C@@H](Cc2ccc(O)cc2)C(=O)NCC(=O)O)NC(=O)[C@H](CCC(N)=O)NC(=O)[C@@H]2CCCN2C(=O)[C@@H]2CCCN2C1=O` [CH15] (H-CGSATYSIPPQCYG-OH; disulfide 1-12; N-terminus and C-terminus assumed), the Ki turned out to be 1.99 µM and it took 4.6 µM to reach half-maximal inhibition (IC50).
`CC[C@H](C)[C@@H]1NC(=O)[C@H](CO)NC(=O)[C@H](Cc2ccc(O)cc2)NC(=O)[C@H]([C@@H](C)O)NC(=O)[C@H](C)NC(=O)[C@H](CO)NC(=O)[C@@H](N)CSSC[C@@H](C(=O)N[C@@H](Cc2ccc(O)cc2)C(=O)NCC(=O)O)NC(=O)[C@H](CCC(N)=O)NC(=O)[C@@H]2CCCN2C(=O)[C@@H]2CCCN2C1=O` [CH16] (H-CSATYSIPPQCYG-OH; disulfide 1-11; N-terminus and C-terminus assumed) registered an IC50 greater than 50 µM.
Take `CC[C@H](C)[C@@H]1NC(=O)[C@H](CO)NC(=O)[C@H](CC(C)C)NC(=O)[C@H]([C@@H](C)O)NC(=O)[C@@H](NC(=O)[C@@H](N)Cc2ccccc2)CSSC[C@@H](C(=O)N[C@@H](Cc2ccc(O)cc2)C(=O)NCC(=O)O)NC(=O)[C@H](CCC(N)=O)NC(=O)[C@@H]2CCCN2C(=O)[C@@H]2CCCN2C1=O` [CH19] (H-FCTLSIPPQCYG-OH; disulfide 2-10; N-terminus and C-terminus assumed): the inhibition constant (Ki) was determined as 4.87 µM and the midpoint of inhibition, the IC50, lay at 11.3 µM.
`CC[C@H](C)[C@@H]1NC(=O)[C@@H]2CCCN2C(=O)[C@@H]2CCCN2C(=O)[C@H]([C@@H](C)CC)NC(=O)[C@H](CO)NC(=O)[C@H](Cc2ccc(O)cc2)NC(=O)[C@H](CC(C)C)NC(=O)[C@@H](NC(=O)[C@H](CCCCN)NC(=O)CN)CSSC[C@@H](C(=O)N[C@@H](Cc2ccccc2)C(=O)N2CCC[C@H]2C(=O)N[C@@H](CC(N)=O)C(=O)O)NC1=O` [CH20] (H-GKCLYSIPPICFPN-OH; disulfide 3-11; N-terminus and C-terminus assumed): the inhibition constant (Ki) was found to be 7.1 µM and half-maximal inhibition (IC50) required 16.4 µM.
In the case of `CC[C@H](C)[C@@H]1NC(=O)[C@H](CO)NC(=O)[C@H](Cc2ccc(O)cc2)NC(=O)[C@H]([C@@H](C)O)NC(=O)[C@H](C)NC(=O)[C@H](CC(N)=O)NC(=O)CNC(=O)[C@@H](N)CSSC[C@@H](C(=O)N[C@@H](Cc2ccc(O)cc2)C(=O)NCC(=O)O)NC(=O)[C@H](CCC(N)=O)NC(=O)[C@@H]2CCCN2C(=O)[C@@H]2CCCN2C1=O` [CH21] (H-CGNATYSIPPQCYG-OH; disulfide 1-12; N-terminus and C-terminus assumed), the concentration for half-maximal inhibition (IC50) was greater than 50 µM.
On to `CC[C@H](C)[C@@H]1NC(=O)[C@H](CO)NC(=O)[C@H](Cc2ccc(O)cc2)NC(=O)[C@H]([C@@H](C)O)NC(=O)[C@H](C)NC(=O)[C@H]([C@@H](C)O)NC(=O)CNC(=O)[C@@H](N)CSSC[C@@H](C(=O)N[C@@H](Cc2ccc(O)cc2)C(=O)NCC(=O)O)NC(=O)[C@H](CCC(N)=O)NC(=O)[C@@H]2CCCN2C(=O)[C@@H]2CCCN2C1=O` [CH22] (H-CGTATYSIPPQCYG-OH; disulfide 1-12; N-terminus and C-terminus assumed), for which the IC50 is greater than 50 µM.
